Data on 1 molecule can be found in patent US5563130A, “Methods for inhibiting angiogenesis, proliferation of endothelial or tumor cells and tumor growth” (American Cyanamid Company, priority 1994, dated 1996).

The test system of one test is tumor. The following applies: in conjunction with cancer chemotherapy or radiation therapy; Teicher et al; cited from earlier work.
For test [1], the system named is Adult Bovine Aortic Endothelial (ABAE) cell line. Put plainly: Antiproliferative activity in ABAE cells, PROTOCOL 2 (48 h, SRB, single well). The class given is cell-based. The following applies: Bos taurus; ABAE cells, 48 h, PROTOCOL 2. The procedure: PROTOCOL 1, 2, and 3 are described in greater detail hereinbelow. In general, according to PROTOCOLS 1 and 2, the target ABAE and/or Human Tumor cells are exposed to the compound of Formula I for 48 hours. PROTOCOL 3 exposes ABAE cell to the compound for 4 days. A detailed description of the protocol is as follows:
Antiproliferative Activity in Human Tumor and Adult Bovine Aortic Endothelial (ABAE) Cell Lines
The antiproliferative activity of the compounds of Formula I is evaluated in a panel comprised of human tumor cell lines and an adult bovine aortic endothelial cell line (ABAE) as listed in PROTOCOL 1. This assay is a modification of PROTOCOL 1. The modifications include:
1) each concentration for each compound is tested in a single well;
2) compounds are tested at 20, 4, 0.8, 0.16 microgram/ml and additionally in some experiments at 100 and 0.32 microgram/ml;
3) samples are pipetted into a 96-well plate for each of the cell lines by a Beckman Biomek 1000 SL robot;
4) after fixing with TCA each well is washed with 0.35 ml distilled water twice, not five times;
5) after staining with sulforhodamine B each well is washed 3 times, not five times;
6) the growth inhibition (I) as % of control, is calculated using the RS-1 data package (BBN Software), for every concentration of drug, as follows: [formula] wherein: T is optical density measurement for treated cells after 48 hours;
C is optical density measurement for untreated cells after 48 hours;
7) IC50 of growth inhibition is determined from graphically from dose response curves, as is known in the art.
Table 1 presents the results depicting the antiproliferative activity of the compounds of Formula I against an Adult Bovine Aortic Endothelial (ABAE) cell line, as evaluated by PROTOCOL 1 and PROTOCOL 2. The results are presented in terms of IC50 and are as follows.

Each structure is given as a SMILES string.

By IC50 is commonly meant the point on the concentration scale where inhibition reaches its midpoint. Read a low IC50 as inhibition by little substance. As for `CN(C)c1ccc(O)c2c1C[C@H]1C[C@H]3[C@H](N(C)C)C(O)=C(C(N)=O)C(=O)[C@@]3(O)C(O)=C1C2=O` [Minocycline, reference compound], in the test on tumor, the number of metastases result is recorded as “reduced” and the tumor growth result was “decreased”. The same molecule yielded an IC50 in test [1] not below 20 µg/mL.
